Assays:
A2780 cells [1] = experiment: ROS detection, DCFH2-DA assay by flow cytometry; type: cell-based, human; details: A2780, five hours, IC50 concentrations
Procedure: To confirm the hypothesis of induction of oxidative stress by complexes 6 and 8, based on the potential mechanism of action observed for complex 3, the intracellular production of ROS in A2780 cells exposed to the complexes was investigated using the fluorescent DCFH2‐DA assay with the analysis performed by flow cytometry.
ROS detection: Flow cytometry analysis of total induction of ROS in A2780 cells caused by exposure to complexes 6 and 8 was carried out using DCFH2‐DA assay. Briefly, 1.0×10^6 cells per well were seeded in a 6‐well plate and incubated for 24 at 37 °C and a 5 % CO2 humidified atmosphere. After removal of the media, cells were washed with PBS and loaded with DCFH2‐DA dye (20 μM, in basal RPMI). […] Cells were washed with PBS and harvested with trypsin. Cells were analysed in a BD Accuri C6 Plus System Flow Cytometer using Ex/Em: 490/525 nm for the oxidative stress detection. Data was analysed using the BD Accuri C6 Plus software.

A2780cisR cells = experiment: Cell viability with N-acetylcysteine (MTT), A2780cisR; type: cell-based, human; details: NAC 5 mM 30 min before complexes at IC50
Procedure: (§1) Cell viability with N ‐acetylcysteine: Cells were seeded in 96‐well plates at a concentration of 7.5×10^3 cells per well and the plates were incubated for 24 h at 37 °C and a 5 % CO2 humidified atmosphere prior to drug exposure. Complexes were dissolved in either DMSO or PBS to provide stock solutions which were further diluted with media to provide a range of final concentrations. Solution of N‐acetylcysteine (NAC) in media was also prepared. […] Cells were incubated for 24 h at 37 °C and a 5 % CO2 humidified atmosphere. 3‐(4,5‐dimethylthiazol‐2‐yl)‐2,5‐diphenyltetrazolium bromide (MTT) (20 μL, 2.5 mg/mL) was added to each well and plates were incubated for 2 h. All solutions were then removed and 100 μL of DMSO was added to each well in order to dissolve the purple formazan crystals. A Thermo Scientific Multiskan EX microplate photometer was used to measure the absorbance in each well at 570 nm. Cell survival was determined as the absorbance of treated cells divided by the absorbance of controls and expressed as a percentage.

[2] = test system: PNT2 non-cancerous human prostate cells; experiment: 24-hour MTT chemosensitivity assay with 72-hour recovery, PNT2; type: cell-based; details: 24 h exposure, 72 h recovery, MTT; read-out: IC50 values ±SD, PNT2
Procedure: (§2) Chemosensitivity studies were undertaken using a 24‐hour MTT assay, with a 72‐hour recovery period. The IC50 values were determined against ovarian A2780 (cisplatin‐sensitive) and A2780cisR (cisplatin‐resistant) cancer cell lines, non‐small‐cell lung H460 cancer cell line, and normal prostate PNT2 cell line, exposed to each of compounds 4–8, cisplatin or the phosphine ligands (Table 1 and S4, Figures S29–S31). […] This is unusual but can be related to solubility issues not visible for the naked eye and thus hindering its activity in cells. […] When tested on their own, the phosphine ligands are not active below 100 μM for all four cell lines. […] This therefore prevents comparison with the well‐known RAPTA family, and more especially with RAPTA−C which bears a PTA ligand and a p‐cym ligand, making this complex relatively similar in terms of geometry with complex 4.[21] […] This confirms the interest of the sulfur coordinating atom in terms of cytotoxicity for organoruthenium complexes.[23]
(§3) Chemosensitivity assay: In vitro chemosensitivity tests were performed against A2780, A2780cisR, PNT2 and H460 cells. Cells were routinely maintained as monolayer cultures in RPMI 1640 medium supplemented with 10 % foetal calf serum, penicillin (100 I.U./mL) and streptomycin (100 μg/mL), sodium pyruvate (1 mM) and L‐glutamine (2 mM). For chemosensitivity studies, cells were seeded in 96‐well plates at a concentration of 7.5×10^3 cells per well and the plates were incubated for 24 h at 37 °C and a 5 % CO2 humidified atmosphere prior to drug exposure.
(§4) Complexes were dissolved in either DMSO (complexes 4, 5, and 8) or PBS (complexes 6 and 7) to provide stock solutions which were further diluted with media to provide a range of final concentrations. Drug‐media solutions were added to cells (the final concentration of DMSO was less than 1 % (v/v) in all cases) and incubated for 24 h at 37 °C and a 5 % CO2 humidified atmosphere. The drug‐media solution was removed from the wells and the cells were washed with PBS (100 μL, twice) and 200 μL of complete fresh media were added to each well. The plates were further incubated for 72 h at 37 °C and a 5 % CO2 humidified atmosphere to allow for a period of recovery. 3‐(4,5‐dimethylthiazol‐2‐yl)‐2,5‐diphenyltetrazolium bromide (MTT) (40 μL, 2.5 mg/mL) was added to each well and plates were incubated for 2 h. All solutions were then removed and 100 μL of DMSO was added to each well in order to dissolve the purple formazan crystals. A Thermo Scientific Multiskan EX microplate photometer was used to measure the absorbance in each well at 570 nm. Cell survival was determined as the absorbance of treated cells divided by the absorbance of controls and expressed as a percentage. The IC50 values were determined from plots of % survival against drug concentration. Each experiment was repeated in triplicates of triplicates and a mean value was obtained and stated as IC50 (μM) ± SD. Untreated cells were used as a negative control, and cells treated with cisplatin were used as a positive control.

[3] = test system: A2780 ovarian cancer cells; experiment: 24-hour MTT chemosensitivity assay with 72-hour recovery, A2780; type: cell-based, human; details: for IC50: 24 h exposure, 72 h recovery, MTT, read-out: IC50 values ±SD, A2780; for Selectivity index (SI), A2780: mean IC50 PNT2 / mean IC50 A2780
Procedure: as §2, §3, §4

A2780 cells [4] = experiment: Cell viability with N-acetylcysteine (MTT), A2780; type: cell-based, human; details: A2780, NAC 5 mM 30 min before complexes at IC50
Procedure: as §1

[5] = Reactivity with NAC by NMR; type: physicochemical; details: NMR studies over 24 hours
[6] = test system: A2780cisR cisplatin-resistant ovarian cancer cells; experiment: 24-hour MTT chemosensitivity assay with 72-hour recovery, A2780cisR; type: cell-based, human; details: for IC50: 24 h exposure, 72 h recovery, MTT, read-out: IC50 values ±SD, A2780cisR; for Selectivity index (SI), A2780cisR: mean IC50 PNT2 / mean IC50 A2780cisR
Procedure: as §2, §3, §4

[7] = test system: H460 non-small-cell lung cancer cells; experiment: 24-hour MTT chemosensitivity assay with 72-hour recovery, H460; type: cell-based; details: for IC50: 24 h exposure, 72 h recovery, MTT, read-out: IC50 values ±SD, H460; for Selectivity index (SI), H460: mean IC50 PNT2 / mean IC50 H460
Procedure: as §2, §3, §4

A2780 cells [8] = experiment: JC-10 mitochondrial membrane potential assay by flow cytometry; type: cell-based, human; details: A2780, 24 h, complexes at IC50, cisplatin 6.5 µM
Excerpt: A membrane potential sensitive fluorescent probe JC‐10 was used to determine whether the apoptosis induced by complexes 6 and 8 is accompanied by changes in the mitochondrial membrane potential (ΔΨm) of A2780 cells. JC‐10 aggregates inside mitochondria and emits orange fluorescence. Following membrane […], JC‐10 is disaggregated and this in turn reduces the orange fluorescence.
Figure 8 Effect of complexes 6 and 8 on the mitochondrial membrane potential. […] The percentages of cells with depolarised mitochondrial membrane potential were assessed by flow cytometry after staining with JC‐10. The data are expressed as the means±SD of the three individual experiments.
Mitochondrial membrane potential assay: Analysis of the changes of mitochondrial potential in A2780 cells after exposure to complexes 6 and 8 was carried out using the JC‐10 mitochondrial membrane potential assay kit (abcam®) according to the manufacturer's instructions. Briefly, 1.0×10^6 cells per well were seeded in a 6‐well plate and incubated for 24 at 37 °C and a 5 % CO2 humidified atmosphere. […] Supernatants were removed by suction, and each well was washed with PBS before detaching the cells using trypsin. Staining of the samples was done in tubes protected from light, incubating for 30 min in the dark at room temperature. Samples were immediately analysed on a BD Accuri C6 Plus System Flow Cytometer, reading the reduction of fluorescence in the FL2 channel.

Compound	ROS levels in treated cells compared to untreated cells (A2780 cells [1])	Cell viability after pre-treatment with NAC (A2780cisR cells)	IC50 [2]	IC50 [3]	Selectivity index (SI), A2780 [3]	Cell viability after pre-treatment with NAC (A2780 cells [4])	Reaction with NAC [5]	IC50 [6]	Selectivity factor (cross-resistance, resistance factor RF) ([6]; IC50 A2780cisR / IC50 A2780)	Selectivity index (SI), A2780cisR [6]	IC50 [7]	Selectivity index (SI), H460 [7]	% cell population with high orange fluorescence (A2780 cells [8]; Experiment 1)	% cell population with low orange fluorescence (A2780 cells [8]; Experiment 1)	% cell population with high orange fluorescence (A2780 cells [8]; Experiment 2)	% cell population with low orange fluorescence (A2780 cells [8]; Experiment 2)	% cell population with high orange fluorescence (A2780 cells [8]; Experiment 3)	% cell population with low orange fluorescence (A2780 cells [8]; Experiment 3)	% cell population with high orange fluorescence (A2780 cells [8]; Summary, mean values ± SD)	% cell population with low orange fluorescence (A2780 cells [8]; Summary, mean values ± SD)
(η^6‐p‐cymene)(TPPTS)Ru(Mnt) [Complex 6]	significant increase of ROS levels	increase of the cell viability	1600 ± 300 nM	600 ± 70 nM	2.67	increase of the cell viability	do not react together	1300 ± 10 nM	2.2	1.23	2000 ± 200 nM	0.80	60.4%	39.6%	55.5%	44.5%	62.7%	37.3%	59.5 ± 3.7%	40.5 ± 3.7%
Cc1ccc(C(C)C)cc1.N#CC1=C(C#N)[S][Ru-]([P+](c2ccccc2)(c2ccccc2)c2ccccc2)[S]1 [Complex 8, (η^6‐p‐cymene)(PPh3)Ru(Mnt)]	significant increase of ROS levels	increase of the cell viability	2400 ± 200 nM	960 ± 40 nM	2.50	increase of the cell viability		980 ± 60 nM		2.45	5700 ± 800 nM	0.42	81.9%	18.1%	82.5%	17.5%	80.0%	20.0%	81.5 ± 1.3%	18.5 ± 1.3%

From paper PMC9545474, “Anticancer Water‐Soluble Organoruthenium Complexes: Synthesis and Preclinical Evaluation” (Chembiochem, 2022)
